Results from patent US5792444A, “Labeled chemotactic peptides to image focal sites of infection or inflammation” (The General Hospital Corporation, priority 1993, dated 1998).
Like-named read-outs stand apart in the source and are kept apart here. Where a SMILES comes first, the peptide text is derived from it. [ ]: non-standard residue; d: D form. The star is where a group is joined. HYNIC = NNc1ccc(C(=O)*)cn1; Ac6c = NC1(C(=O)O)CCCCC1; Nle = CCCC[C@H](N)C(=O)O; For = O=C*

Key:
[1] = tested on: E. coli infection; set-up: species or system New Zealand white rabbits; conditions: rabbit, in vivo
Experimental: In order to determine the feasibility of using radiolabeled chemotactic peptides for infection localization in animals that are sensitive to the neutropenic effects of these agents, imaging studies were performed in rabbits with focal E. coli infections. High specific activity ^99m Tc-labeled chemotactic peptide was used in these studies. Six male New Zealand white rabbits weighing 2-3 kg were anesthetized with ketamine and xylazine (15.0 and 1.5 mg/kg) and injected in the left posterior thigh muscle with a 1.0 mL suspension of approximately 2×10^9 E. coli. […] Images were recorded for a preset time of 5 minutes/view with a 15% window centered to include the 140 KeV photopeak of ^99m Tc. […]
After acquiring the final images, the animals were sacrificed by pentobarbital overdose and samples of blood, heart, lung, liver, spleen, kidney, stomach, intestine, testes, bone, marrow, normal skeletal muscle, infected skeletal muscle, and pus were weighed and radioactivity was measured as described above. To correct for radioactive decay, aliquots of the injected doses were counted simultaneously. The results were expressed as percent injected dose per gram. […] The cells were washed with 0.9% NaCl and the residual radioactivity in the cells and supernatant measured. […]

[2] = tested on: E. coli infection; set-up: species or system New Zealand white rabbits; conditions: rabbit, in vivo; remark: listed apart in the source
Experimental: Male New Zealand white rabbits weighing 2.2-3.0 kg were used in all studies. E. coli from a single clinical isolate were grown overnight on trypticase soy agar plates and individual colonies were diluted with sterile normal saline to produce a turbid suspension containing approximately 1×10^11 organisms/0.5 mL (determined with a spectrophotometer). A 0.5 mL inoculum of the bacterial suspension was injected deep in the left thigh muscle of the rabbits.
Twenty four hours after inoculation, rabbits with gross swelling in the infected thigh were injected with the radiopharmaceuticals through a lateral ear vein. Six animals were injected with a mixture of 1 mCi ^99m Tc-HP (>5,000 mCi/μMole) and 0.05 mCi of ^111 In labeled white blood cells.
At 3, 6, and 18 hours after injection of the radiolabeled reagents, the animals were anesthetized with ketamine/xylazine (15.0 and 1.5 mg/kg) and anterior whole body scintigrams were acquired using a large field of view gamma camera equipped with a parallel hole medium energy collimator interfaced to a dedicated computer system (Technicare Gemini 700, Technicare 560, Solon, Ohio). ^111 In and ^99m Tc images were acquired simultaneously in dual photon mode with 15% windows centered on photopeaks at 140 KeV for ^99m Tc and 247 KeV for ^111 In. At 3 and 6 hours after injection, two sets of images were acquired for a preset time of 5 minutes/view. At 18 hours after injection, the imaging time was extended to 10 minutes per view. Regions of interest were drawn over the area of infection and the contralateral normal muscle (background). The results were expressed as target-to-background ratios (infected thigh/contralateral thigh).
After acquiring the final images, the animals were sacrificed with an overdose of sodium pentobarbital and biodistribution was determined. Samples of blood, heart, lung, liver, spleen, kidney, adrenal, stomach, GI tract, testes, bone, bone marrow, normal muscle, infected muscle, and pus were weighed and radioactivity was measured with a well type gamma counter (LKB model #1282, Wallac Oy, Finland). To correct for radioactive decay and permit calculation of the concentration of radioactivity in each organ as a fraction of the administered dose, aliquots of the injected doses were counted simultaneously. The results were expressed as percent injected dose per gram (%I.D./g), infected to normal muscle ratios, and pus to normal muscle ratios.
To determine the nature of the radioactivity in the circulation and at the site of infection, the blood and pus samples were fractionated by gradient centrifugation on Lymphoprep. The plasma was further fractionated on a column of Sephadex G-100 (1.0×25 cm) eluted with PBS, pH 7.4. […]

[3] = target: T1, chemoattractant receptor on human PMN's (Homo sapiens, UniProt P21462); assay: For-MLF receptor binding assay (For-ML[3H]F displacement); conditions: 15 nM For-ML[3H]F, 45 min, 24° C.
T1 construct: endogenous in cells; host or cells: isolated human PMN's (neutrophils) from healthy volunteers, intact cells
T1 sequence (P21462 1-350): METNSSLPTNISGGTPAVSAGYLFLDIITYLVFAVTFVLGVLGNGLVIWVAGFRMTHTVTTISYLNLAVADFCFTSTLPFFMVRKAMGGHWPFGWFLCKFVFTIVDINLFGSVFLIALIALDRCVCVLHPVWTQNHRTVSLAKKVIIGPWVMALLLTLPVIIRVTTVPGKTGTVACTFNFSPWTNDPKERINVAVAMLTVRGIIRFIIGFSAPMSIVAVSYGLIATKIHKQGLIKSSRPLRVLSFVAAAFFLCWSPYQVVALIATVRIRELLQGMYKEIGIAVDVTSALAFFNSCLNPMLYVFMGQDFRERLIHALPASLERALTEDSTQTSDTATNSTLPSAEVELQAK
Experimental: Following incubation, the cells were filtered onto glass fiber discs (Whatman GF/C; Whatman, Inc., Clifton, N.J.) which were then washed with 20 mL of ice cold incubation buffer. The filters were placed in scintillation vials with 10 mL of Safety-Solve (Research Products International Corp., Mt. Prospect, Ill.) and radioactivity was measured by liquid scintillation spectroscopy. Specific binding is defined as total binding minus nonspecific binding. Nonspecific binding is the amount of residual bound radioactivity in the presence of 10 μM unlabeled For-MLF.
(§1) The chemical purity of the final product was evaluated by TLC, HPLC, UV spectroscopy, mass spectroscopy, and amino acid analysis. Determinations of the EC50 's for binding to the chemoattractant receptor on human PMN's and superoxide generation were performed as described in Pike, M. C., and Snyderman, R., Methods Enzymol. 162:236-245 (1988); Pike, M. C., et al., Blood 67:909-913 (1986); and Fischman, A. J., et al., J. Nucl. Med. 32:483-491 (1991).

[4] = Example 1: biological activity (EC50) of peptide and DTPA derivative
Source text: The chemotactic peptide N-formyl-Nle-Leu-Phe-Nle-Tyr-Lys was synthesized using standard solid phase methods well-known in the art (Merrifield, R. B., J. Am. Chem. Soc. […]:2149-2154 (1963); Stewart, J. M., and Young, J. D., Solid Phase Peptide Synthesis, W. H. Freeman & Company, San Francisco, Calif. (1969)). The epsilon amino group of the C-terminal lysine was modified with DTPA using a cyclic anhydride. […] The peptide was readily radiolabeled with ^111 In.

[5] = tested on: sterile inflammation; set-up: species or system Rhesus monkeys; conditions: rhesus monkey, in vivo
Experimental: Two adult female Rhesus monkeys weighing approximately 10 kg were used in the imaging experiments. Since these animals had been used previously in imaging experiments with other radiopharmaceuticals, they had received numerous intramuscular injections in the right posterior thigh during the induction of anesthesia.
Under light ketamine anesthesia (5.5 mg/kg), the animals were injected intravenously through a leg vein with approximately 0.5 mCi ^99m -Tc-labeled peptide (<2.0 ng/kg). At 5 min, 30 min, 1 hr, and 19 hrs following injection of radiolabeled peptide, the animals were anesthetized with ketamine/xylazine (15.0 and 1.5 mg/kg) and whole body scintigrams were acquired using a large field of view gamma camera equipped with a parallel hole high resolution low energy collimator interfaced to a dedicated computer system (Technicare Gemini 700, Technicare 560, Solon, Ohio). […] At 5 minutes prior to injection and 1, 3, 5, and 15 minutes after injection 0.5 mL samples of blood were collected and the CBC was measured.
Regions of interest were drawn over: the whole animal, cardiac blood pool, lung, liver, spleen, kidney, intestine, bone, normal muscle, and inflamed muscle; and count densities (CPM/pixel) were calculated. The results were expressed as tissue-to-blood pool, % injected dose/gram (%ID/g) and target to background ratios (inflamed thigh/contralateral thigh).

[6] = tested on: human neutrophils; assay: Assay of superoxide production (ferricytochrome C reduction); assay type: cell-based; conditions: 0.1 μM
Experimental: as §1

[7] = tested on: rabbit neutrophils; assay: Lysozyme release in rabbit neutrophils; assay type: cell-based
Experimental: The peptide that was prepared and tested was formyl-Met-Acc^6 -Phe--OH.

[8] = target: T2, neutrophils (Homo sapiens, UniProt P21462); assay: Chemoattraction of human neutrophils; assay type: cell-based
T2 sequence (P21462 1-350): T1 sequence (P21462 1-350)
Experimental: (§2) In another preferred embodiment of the present invention, Y is 4-aminotetrahydropyran-4-carboxylic acid (Thp). […] The peptide that was prepared and tested was formyl-Thp-Leu-Phe-OMe.
The peptide that was prepared and tested was formyl-Met-Dpg-Phe--OH

[9] = target: T2, neutrophils; assay: Superoxide production by human neutrophils (backbone analog); assay type: cell-based
Experimental: as §2

[10] = target: T2, neutrophils; assay: MPO (myeloperoxidase assay) release; assay type: cell-based; conditions: pH5
Experimental: (§3) The procedure of Example 5 was repeated for additional CP's within the scope of the present invention. The results are shown in Table I. In the table, MPO is myeloperoxidase assay, a "-" sign means there was no effect at 30 μM, a "+" sign means there was a positive effect at 30 μM, and "N.T." means "Not

[11] = target: T2, neutrophils; assay: Free radicals agonist (neutrophil free radical chemiluminescence); assay type: cell-based; conditions: class symbol
[12] = tested on: neutrophils / human umbilical vein endothelial cells; assay: cells; assay type: cell-based; conditions: read-out: Adhesion Antagonist IC50
Experimental: (§4) The unconjugated peptide iBoc-MLFK was evaluated in a neutrophil-endothelial cell adhesion assay. In this assay, neutrophils (5×10^5) labeled with 5-carboxyfluorescein diacetate were added into wells of a 48 well dish containing confluent human umbilical vein endothelial cells. The iBoc-MLFK peptide was added at a concentration of 10 μM 10 min prior to stimulation of neutrophils with 30 nM ForMLF. Percent adhesion was determined by washing off unattached neutrophils after an incubation period of 25 minutes. This peptide inhibited adhesion by 66% at this concentration. Subsequently, concentrations between 0.1-3.0 μM were examined. […] Inhibition of adhesion would reduce the infiltration of leukocytes, such as neutrophils, to a diseased site, thereby limiting the tissue damage associated with inflammation.
as §3

[13] = target: T2, neutrophils; assay: Free radicals antagonist (inhibition of ForMLF stimulated free radical chemiluminescence); assay type: cell-based
[14] = tested on: neutrophils / human umbilical vein endothelial cells; assay: Adhesion agonist (neutrophil-endothelial cell adhesion assay); assay type: cell-based; conditions: class symbol; read-out: Adhesion Agonist EC50
Experimental: as §4, §3

[15] = target: T2, neutrophils; assay: Binding (Table I, Cell Biology Data)
Source text: Three non-DTPA derivatized peptides were included in the assay for comparison.

CSCC[C@H](NC=O)C(=O)N[C@@H](CC(C)C)C(=O)N[C@@H](Cc1ccccc1)C(=O)N[C@H](CCCCNC(=O)c1ccc(NN)nc1)C(N)=O [Example 99mTc-HP4, metal not drawn] (For-MLF[dK](HYNIC)-NH2)
percent residual circulating radioactivity that was cell associated [1]: approximately 25%
radioactivity of pus associated with WBC's [1]: approximately 90%

CSCC[C@H](NC=O)C(=O)N[C@@H](CC(C)C)C(=O)N[C@@H](Cc1ccccc1)C(=O)N[C@@H](CCCCNC(=O)c1ccc(NN)nc1)C(=O)O [Example 99mTc-HP, Formyl-Methionyl-Leucyl-Phenylalanyl-Lysyl-hydrazininicotinamide, metal not drawn] (For-MLFK(HYNIC)-OH)
binding to red blood cells [2]: < 2%
circulating radioactivity associated with leukocytes [2]: ~ 25%
plasma radioactivity not bound to WBC's eluting with apparent molecular weight of 150,000 (IgG fraction) [2]: > 95%
radioactivity of pus associated with WBC's [2]: approximately 90%

CCCC[C@H](NC=O)C(=O)N[C@@H](CC(C)C)C(=O)N[C@@H](Cc1ccccc1)C(=O)O [For-NleLF, N-formyl-norleucyl-leucyl-phenylalanine] (For-[Nle]-Leu-Phe-OH)
EC50 [3]: 300 nM

CCCC[C@H](NC=O)C(=O)N[C@@H](CC(C)C)C(=O)N[C@@H](Cc1ccccc1)C(=O)N[C@@H](CCCC)C(=O)N[C@@H](Cc1ccc(O)cc1)C(=O)N[C@@H](CCCCN)C(=O)O [For-NleLFNleYK, N-formyl-norleucyl-leucyl-phenylalanyl-norleucyl-tyrosyl-lysine] (For-[Nle]LF[Nle]YK-OH)
EC50 [3]: 1 nM
EC50 [4]: ~1 nM

CSCC[C@H](NC=O)C(=O)N[C@@H](CC(C)C)C(=O)N[C@@H](Cc1ccccc1)C(=O)NCCCCCCNC(=O)c1ccc(NN)nc1 [HP3, For-MLFNH(CH2)6 NH-HYNIC]
effects on WBC level [5]: no significant effects

CCCCCCCCCCCCCC(=O)O[C@@H]1[C@@H](C)[C@@]2(O)[C@@H](C=C(CO)C[C@]3(O)C(=O)C(C)=C[C@@H]23)[C@@H]2C(C)(C)[C@]12OC(C)=O [PMA, phorbol myristate acetate]
maximal response of superoxide production [6]: 22.9 nmol 02^- produced/10^6 cells/10 min

CSCC[C@H](NC=O)C(=O)NC1(C(=O)N[C@@H](Cc2ccccc2)C(=O)O)CCCCC1 [formyl-Met-Acc^6 -Phe--OH] (For-Met-[Ac6c]-Phe-OH)
lysozyme release [7]: potent inducer of lysozyme release

formyl-Thp-Leu-Phe-OMe
chemoattractant activity [8]: chemoattractant agent to human neutrophils
stimulation of superoxide production [9]: did not stimulate superoxide production

iBoc--MLF--O--SPNH [Example 38]
EC50 [10]: 400 nM
EC50 [11]: > 30000 nM
IC50 [12]: > 30000 nM
IC50 [13]: 5000 to 6000 nM
EC50 [14]: < 30000 nM
EC50 [15]: 150 to 5000 nM
